“And” between values parts separate entries of the source, which are not always exact repeats. Equal entries are not always repeated.
How the values were obtained:
[1] = test system: HepG2 cells; assay: γ-H2AX assay, induction of DNA double strand breaks; type: cell-based, human; conditions: 24h, result in words
Method: Figure 4. Cell cycle analysis, cell proliferation and induction of the DNA double stand breaks (DBS) by the selected substituted 4,5'-bithiazole compound 1. (A) Percent of HepG2 cells in certain phases of cell cycle after 24h treatment to compound 1 at 50 µM and 10 µM in comparison with the solvent control (0). […] (B) Percent of proliferative cells after 24h treatment to compound 1 at 50 µM and 10 µM determined with the Ki67 antibody. (C) Results of the analyses of the induction of the DNA double strand breaks by γ-H2AX assay. Distribution of the fluorescent signals of individual cells in the samples is shown. Data are presented as quantile box plots. […] In each sample, 10^4 events were recorded, and experiments were repeated three times independently. […]
After the exposure floating and adherent cells were collected by trypsinization. […] FITC intensity, corresponding to proliferation marker Ki67+, was detected in the FITC-A channel and cell cycle analysis was detected in VioBlueA channel. APC intensity, corresponding to DSBs, was detected in the APC-A channel. […] In each sample, 10 000 events were recorded. […] For the yH2AX foci analysis the statistical significance between treated groups and the vehicle control was determined with a linear mixed-effects model. […]

[2] = biological target: T1, human topo IIα (Homo sapiens, UniProt P11388); assay: competitive ATPase assay at different ATP concentrations; type: biochemical
T1 construct: purchased Inspiralis (Norwich, UK)
T1 sequence (P11388 whole entry): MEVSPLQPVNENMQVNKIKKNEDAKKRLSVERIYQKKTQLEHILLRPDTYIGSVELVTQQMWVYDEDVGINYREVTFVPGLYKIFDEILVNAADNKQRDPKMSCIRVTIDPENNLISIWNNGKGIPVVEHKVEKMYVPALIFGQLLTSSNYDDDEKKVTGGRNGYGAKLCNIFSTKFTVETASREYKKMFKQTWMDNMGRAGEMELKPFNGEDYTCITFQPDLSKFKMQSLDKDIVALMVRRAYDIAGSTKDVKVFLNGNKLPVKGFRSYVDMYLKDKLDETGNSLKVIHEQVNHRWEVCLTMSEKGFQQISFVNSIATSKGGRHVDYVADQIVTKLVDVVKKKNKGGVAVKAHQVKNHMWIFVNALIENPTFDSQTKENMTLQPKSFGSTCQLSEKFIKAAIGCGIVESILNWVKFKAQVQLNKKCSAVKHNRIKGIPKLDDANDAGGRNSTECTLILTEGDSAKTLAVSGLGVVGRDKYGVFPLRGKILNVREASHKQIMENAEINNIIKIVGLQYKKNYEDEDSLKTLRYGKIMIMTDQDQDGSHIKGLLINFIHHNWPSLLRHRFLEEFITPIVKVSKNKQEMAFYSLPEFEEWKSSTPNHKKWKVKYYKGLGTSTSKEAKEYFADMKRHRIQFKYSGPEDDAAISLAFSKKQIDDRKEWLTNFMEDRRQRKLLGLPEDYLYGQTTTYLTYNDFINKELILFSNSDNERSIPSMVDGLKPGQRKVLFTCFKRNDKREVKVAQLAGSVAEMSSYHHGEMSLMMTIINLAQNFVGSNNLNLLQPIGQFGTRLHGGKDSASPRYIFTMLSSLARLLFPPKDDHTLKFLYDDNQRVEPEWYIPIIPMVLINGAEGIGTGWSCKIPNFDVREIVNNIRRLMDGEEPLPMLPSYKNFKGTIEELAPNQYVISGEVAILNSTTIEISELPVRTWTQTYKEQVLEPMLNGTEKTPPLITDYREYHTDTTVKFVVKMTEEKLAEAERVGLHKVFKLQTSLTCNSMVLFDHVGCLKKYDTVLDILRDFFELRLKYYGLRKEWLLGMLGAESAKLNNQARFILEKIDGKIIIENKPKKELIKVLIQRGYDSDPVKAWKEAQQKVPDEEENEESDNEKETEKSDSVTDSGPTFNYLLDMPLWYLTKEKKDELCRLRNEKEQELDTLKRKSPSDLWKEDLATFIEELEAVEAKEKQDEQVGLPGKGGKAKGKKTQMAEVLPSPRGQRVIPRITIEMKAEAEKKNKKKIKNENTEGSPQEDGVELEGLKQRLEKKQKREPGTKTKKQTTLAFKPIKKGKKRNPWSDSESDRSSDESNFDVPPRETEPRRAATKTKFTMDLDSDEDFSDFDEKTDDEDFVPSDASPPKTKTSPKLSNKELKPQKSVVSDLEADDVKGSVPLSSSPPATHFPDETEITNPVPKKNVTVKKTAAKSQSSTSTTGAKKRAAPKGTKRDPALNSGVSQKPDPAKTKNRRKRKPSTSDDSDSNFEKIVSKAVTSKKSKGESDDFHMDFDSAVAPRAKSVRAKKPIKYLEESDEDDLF
Method: Then, we performed the competitive ATPase assay for compound 1, to investigate how our class of compounds affects the ATP hydrolysis in dependence of ATP concentration. Assay was performed at 8 different concentrations of ATP and compound 1. […] The assay was carried out in two parallels. […] In addition, we also calculated the IC50 values of compound 1 vs. different concentrations of the ATP.
Compound were analyzed using a linked ATPase assay in which the ADP produced by the hydrolysis of ATP leads to the conversion of NADH to NAD by a pyruvate kinase/lactate dehydrogenase mix. The disappearance of NADH was monitored at 340 nm. A mix of the assay buffer (5 µL of 10X buffer per assay: final conc. 20 mM Tris-HCl, 5 mM magnesium acetate, 125 mM potassium acetate, 2 mM DTT, pH 7.9), linear pBR322 (1.5 µL of 1mg/mL per assay), phosphoenol pyruvate (0.5 µL of 80 mM per assay), pyruvate kinase/lactate dehydrogenase mix (0.75 µL per assay), NADH (1 µL of 20 mM per assay), DMSO (1.5 µL per assay), and water (32.85 µL per assay) was made. 41.1 µL of this mixture was aliquoted into the wells of a 384-well microtiter plate. 0.5 µL of DMSO or the investigated compound were added to the wells and mixed. 5 µL of the dilution buffer or human topo IIα (200 nM stock giving the 12 nM final concentration) were then added and mixed. A pre-run was done before the run was started by adding 3.4 µL of the appropriate concentration of ATP and the OD340 monitored for up to 35 minutes. Assays were performed at 37 °C. Two negative controls (4 % DMSO and dilution buffer without enzyme) were run in the presence of 2 mM ATP. This assay was performed at 8 different concentrations of the ATP (0.025, 0.05, 0.075, 0.1, 0.25, 0.5, 0.75 and 1 mM). Assays were performed at 3.9, 31, 50, 75 and 100 µM final concentrations of the investigated compound 1. The final DMSO concentration in all the reactions was 4 % (v/v). Assay was performed in duplicate. The human topo competitive ATPase assay was performed in collaboration with Inspiralis (Norwich, UK).

[3] = test system: HepG2 cells; assay: cell cycle analysis by flow cytometry (Hoechst 33342); type: cell-based, human; conditions: 24h, mean ± SD of 3; for S phase, percent of HepG2 cells: listed as head printed "5" in Table 7
Method: Figure 4. Cell cycle analysis, cell proliferation and induction of the DNA double stand breaks (DBS) by the selected substituted 4,5'-bithiazole compound 1. (A) Percent of HepG2 cells in certain phases of cell cycle after 24h treatment to compound 1 at 50 µM and 10 µM in comparison with the solvent control (0). […] (B) Percent of proliferative cells after 24h treatment to compound 1 at 50 µM and 10 µM determined with the Ki67 antibody. (C) Results of the analyses of the induction of the DNA double strand breaks by γ-H2AX assay. Distribution of the fluorescent signals of individual cells in the samples is shown. Data are presented as quantile box plots. The edges of the box represent the 25th and 75th percentiles, the median is a solid line through the box, and the bars represent 95% confidence intervals. In each sample, 10^4 events were recorded, and experiments were repeated three times independently. Significant difference between treated cells and the solvent control (0) is indicated by * p < 0.05, ** p < 0.01 and *** p < 0.001.
(§1) After the exposure floating and adherent cells were collected by trypsinization. For the fixation the cells were centrifuged at 800 rpm, 4°C for 5 min, washed twice with ice cold PBS, resuspended in 0.5 mL cold PBS and ethanol (1.5 mL) was added drop wise into the cell pellet, while vortexing. The cells were fixed at 4°C overnight and stored at -20°C until analysis. Fixed cells were centrifuged at 1200 rpm for 10 min, washed with ice cold 1× PBS and labelled with Anti-H2AX pS139 antibodies (50-fold diluted) for DNA DBS analysis, Ki67 antibodies (50-fold diluted) for proliferation analysis and Hoechst 33342 dye for cell cycle analysis according to the manufacturer's protocol. Flow cytometric analysis was carried out on a MACSQuant Analyzer 10 (Miltenyi Biotech, Germany). FITC intensity, corresponding to proliferation marker Ki67+, was detected in the FITC-A channel and cell cycle analysis was detected in VioBlueA channel. APC intensity, corresponding to DSBs, was detected in the APC-A channel. Unspecific binding was checked with rea-FITC and rea-APC antibodies (Miltenyi Biotec, Germany). In each sample, 10 000 events were recorded. Independent experiments were repeated three times. […] For further analysis the raw data was exported from MACSQuantify software and it was converted to. fcs format and further to the .csv format. For the yH2AX foci analysis the statistical significance between treated groups and the vehicle control was determined with a linear mixed-effects model. Calculations were done with the statistical program R [49] and its packages reshape and nlme.

[4] = biological target: T2, human topo IIα ATPase domain (Homo sapiens, UniProt P11388); assay: microscale thermophoresis (MST) binding; conditions: three independent runs; initial fluorescence; labelled protein 20 nM
T2 construct: The ATPase fragment with 1-453 amino acid residues was purchase from Inspiralis; purchased Inspiralis
T2 sequence (P11388 1-453): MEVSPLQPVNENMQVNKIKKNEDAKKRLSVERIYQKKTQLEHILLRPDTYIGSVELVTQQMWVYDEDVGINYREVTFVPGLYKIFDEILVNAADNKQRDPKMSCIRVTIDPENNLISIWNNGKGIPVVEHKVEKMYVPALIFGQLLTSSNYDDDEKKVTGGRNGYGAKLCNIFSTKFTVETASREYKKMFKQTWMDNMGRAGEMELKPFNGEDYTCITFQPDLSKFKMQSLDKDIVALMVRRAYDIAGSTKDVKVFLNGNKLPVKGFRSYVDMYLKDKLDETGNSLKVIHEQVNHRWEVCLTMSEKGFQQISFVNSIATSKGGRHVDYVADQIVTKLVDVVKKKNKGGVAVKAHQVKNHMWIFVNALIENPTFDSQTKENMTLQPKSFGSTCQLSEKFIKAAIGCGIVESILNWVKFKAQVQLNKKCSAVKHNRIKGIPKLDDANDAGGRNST
Excerpt: Figure 2. […] The graph shown is representative of two independent experiments.

[5] = test system: HepG2 cells; assay: cell proliferation, Ki-67 marker, flow cytometry; type: cell-based, human; conditions: 24h
Method: as §1, with “For” for “For further analysis the raw data was exported from MACSQuantify software and it was converted to. fcs format and further to the .csv format. For”, “Calculations were done with the statistical program R [49] and its packages reshape and nlme.” left out

## Cc1nc(N)sc1-c1csc(Nc2ccc(C(F)(F)F)cc2)n1 [Compound 1, 4'-methyl-N2-(4-(trifluoromethyl)phenyl)-[4,5'-bithiazole]-2,2'-diamine]
[1]; 10 µM
  DNA DSB formation: no increase
[1]; 50 µM
  DNA DSB formation: no increase
[2]; c(ATP) 0.025
  IC50: 3.8 µM
[2]; c(ATP) 0.05
  IC50: 8.8 µM
[2]; c(ATP) 0.075
  IC50: 14.8 µM
[2]; c(ATP) 0.1
  IC50: 9.4 µM
[2]; c(ATP) 0.25
  IC50: 18.3 µM
[2]; c(ATP) 0.5
  IC50: 15.2 µM
[2]; c(ATP) 0.75
  IC50: 17.8 µM
[2]; c(ATP) 1
  IC50: 21.6 µM
[2]; c(ATP) 2
  IC50: 25.4 µM
[3]; 10 µM
  >G1, G2<, percent of HepG2 cells: 1.2 ± 1.0%
  G1 phase, percent of HepG2 cells: 56.5% and 56.5 ± 6.4%
  G2 phase, percent of HepG2 cells: 24.8 ± 4.5%
  S phase, percent of HepG2 cells: 17.5% and 17.5 ± 1.1^∗∗∗ %
[3]; 50 µM
  >G1, G2<, percent of HepG2 cells: 1.4 ± 0.6%
  G1 phase, percent of HepG2 cells: 60.6% and 60.6 ± 7.0^∗ %
  G2 phase, percent of HepG2 cells: 26.2 ± 2.5%
  S phase, percent of HepG2 cells: 17.5% and 11.8 ± 4.5^∗∗ %
[4]
  Kd: 50.6 ± 7.6 µM
[5]; 10 µM
  Percent of cell proliferation (Ki-67 positive): 88.6%
[5]; 50 µM
  Percent of cell proliferation (Ki-67 positive): 81.3%

From patent publication EP3811940B1, “SUBSTITUTED 4,5'-BITHIAZOLES AS INHIBITORS OF THE HUMAN DNA TOPOISOMERASE II” (Kemijski Institut, priority 2019, dated 2021)
